Assay results taken from paper PMC11945486, “TAS1R2/TAS1R3 Single-Nucleotide Polymorphisms Affect Sweet Taste Receptor Activation by Sweeteners: The SWEET Project” (Nutrients, 2025).
Read-outs that look alike come from different tables or passages of the source. Blank lines part the entries; values can stand above or below the molecule they belong to. No end group written: not given here.

Biological target: T1, human TAS1R2-WT/TAS1R3-L823F (Homo sapiens, UniProt Q7RTX0+Q8TE23, L823F)
T1 construct: expressed in transfected cells; host or cells: HEK293T stably expressing Gα16gust44
T1 sequence (Q8TE23 20-839): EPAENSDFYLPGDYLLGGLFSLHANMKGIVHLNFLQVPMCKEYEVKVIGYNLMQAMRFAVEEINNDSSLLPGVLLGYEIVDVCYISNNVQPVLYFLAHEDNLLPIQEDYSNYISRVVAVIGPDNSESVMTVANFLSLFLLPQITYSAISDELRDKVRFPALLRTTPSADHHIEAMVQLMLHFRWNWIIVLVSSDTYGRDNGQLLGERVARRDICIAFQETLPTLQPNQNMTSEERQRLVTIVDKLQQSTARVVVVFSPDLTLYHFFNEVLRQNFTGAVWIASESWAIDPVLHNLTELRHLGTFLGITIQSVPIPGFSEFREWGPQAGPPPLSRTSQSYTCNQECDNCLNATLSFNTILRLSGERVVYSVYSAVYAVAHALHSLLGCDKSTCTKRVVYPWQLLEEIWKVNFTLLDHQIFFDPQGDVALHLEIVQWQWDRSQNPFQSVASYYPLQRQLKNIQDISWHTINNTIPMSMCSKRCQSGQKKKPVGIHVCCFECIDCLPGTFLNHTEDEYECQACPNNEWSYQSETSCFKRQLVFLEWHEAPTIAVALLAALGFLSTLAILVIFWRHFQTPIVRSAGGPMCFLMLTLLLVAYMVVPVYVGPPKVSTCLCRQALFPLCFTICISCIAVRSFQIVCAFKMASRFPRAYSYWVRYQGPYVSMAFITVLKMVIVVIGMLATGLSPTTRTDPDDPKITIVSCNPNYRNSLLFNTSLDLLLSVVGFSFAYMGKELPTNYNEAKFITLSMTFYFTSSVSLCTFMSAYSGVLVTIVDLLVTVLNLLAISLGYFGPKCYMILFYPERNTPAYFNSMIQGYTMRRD
T1 sequence (Q7RTX0 21-852 L823F): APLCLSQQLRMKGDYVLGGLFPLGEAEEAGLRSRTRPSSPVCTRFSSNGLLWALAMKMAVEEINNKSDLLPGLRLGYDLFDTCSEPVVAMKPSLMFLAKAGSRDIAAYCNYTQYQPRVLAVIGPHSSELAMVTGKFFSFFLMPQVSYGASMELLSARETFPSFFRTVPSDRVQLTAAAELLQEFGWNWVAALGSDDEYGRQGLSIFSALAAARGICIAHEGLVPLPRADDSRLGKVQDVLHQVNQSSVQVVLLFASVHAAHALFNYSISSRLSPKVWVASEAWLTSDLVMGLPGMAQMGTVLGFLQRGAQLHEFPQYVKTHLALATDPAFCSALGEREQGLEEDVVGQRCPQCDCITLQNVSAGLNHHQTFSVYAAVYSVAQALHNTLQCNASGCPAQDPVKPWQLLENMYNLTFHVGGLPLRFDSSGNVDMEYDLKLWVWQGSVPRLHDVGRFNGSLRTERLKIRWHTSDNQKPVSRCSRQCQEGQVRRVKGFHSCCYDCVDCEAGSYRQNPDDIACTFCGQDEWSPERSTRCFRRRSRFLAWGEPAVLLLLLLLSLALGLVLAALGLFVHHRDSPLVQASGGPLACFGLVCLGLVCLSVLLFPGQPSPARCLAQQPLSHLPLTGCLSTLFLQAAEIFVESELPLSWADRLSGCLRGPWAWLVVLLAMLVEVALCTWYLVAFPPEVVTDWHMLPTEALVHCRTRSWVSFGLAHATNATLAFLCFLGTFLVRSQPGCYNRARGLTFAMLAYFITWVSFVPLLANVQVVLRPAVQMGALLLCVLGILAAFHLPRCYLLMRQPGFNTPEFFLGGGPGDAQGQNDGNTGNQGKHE
Experiment: Calcium mobilisation assay, TAS1R2-WT with TAS1R3 variant L823F
Type: cell-based
Settings: for Max ΔF/F0: maximal signal amplitude
From the text: The coding sequences for TAS1R2 and TAS1R3 were commercially synthesised, and the human codon was optimised for expression in human cells. The coding sequences of human TAS1R2 and TAS1R3 were subcloned and inserted into the mammalian expression vectors pcDNA6/myc-HisA and pcDNA4/myc-HisA (Invitrogen; Thermo Fisher Scientific; Illkirch, France) between the EcoRI and NotI restriction sites, generating the plasmids pcDNA6-TAS1R2 and pcDNA4-TAS1R3, respectively. To increase protein expression in mammalian cells, an upstream start codon was used, which was a sequence called MAX, corresponding to the QBI SP163 element also described in pcDNA4-HisMax (Invitrogen; Thermo Fisher Scientific; Illkirch, France). To measure the expression level of the receptor by immunohistochemistry, we used the FLAG sequence ([…]) in the C-terminal position, which encodes the FLAG tag epitope. SNP variants of TAS1R2 and TAS1R3 were constructed based on […], respectively, using site-directed mutagenesis (Genewiz; Leipzig, Germany).
The HEK293T cells were kindly provided by Jay P. Slack (Givaudan Flavors Corporation; Cincinnati, OH, USA). HEK293T cells stably transfected with Gα16gust44 [43, 67] were seeded in poly-D-lysine-coated clear-bottom black 96-well plates (0.35 × 10^5 cells/well) in high-glucose DMEM supplemented with 2 mM GlutaMAX, 10% dialysed foetal bovine serum with penicillin/streptomycin and G418 (400 μg/mL) at 37 °C and 6.3% CO2 in a humidified atmosphere as previously reported. […] As a negative control, HEK293T cells were mock-transfected with the empty expression vector. After a further 24 h of incubation, the HEK293T cells were washed with C1 buffer (130 mM NaCl, 5 mM KCl, 10 mM HEPES pH 7.4 and 2 mM CaCl2). The 96-well plates containing the cells were then stimulated with sweet-tasting compounds. […] Different concentration ranges were tested depending on the sweet compound injected. The Ca^2+ changes were expressed as fractional changes in fluorescent light intensity: ΔF/F = (F − F0)/F0, where F was the fluorescent light intensity at each point, and F0 was the value of emitted fluorescent light prior to stimulus application. To calculate dose–response relationships, the changes in fluorescence upon stimulus application were averaged, mock-subtracted and baseline-corrected. The dose–response data obtained were adjusted using a 4-parameter logistic equation. The half-maximal effective concentrations (EC50 values) and maximal signal amplitudes were calculated using SigmaPlot software (version 15.0) (Systat Software; San Jose, CA, USA).
For in vitro calcium mobilisation assay performed on hTAS1R2-SNPs, hTAS1R3-SNPs and mTAS1R3-I60T, 6 to 7 concentrations were tested for each sweet compound, plus buffer alone. All concentration–receptor combinations were measured in duplicate, and each experiment was repeated at least 4 times (8 wells/concentration). Results were expressed for each concentration as ΔF/F mean ± SEM and represented as dose–response curves.

R1 = Variant EC50/WT EC50: 0.6
Max ΔF/F0: 0.33 ± 0.01
EC50 (read-out: EC50): 376 ± 34 µM
Molecule: CC1=CC(=O)NS(=O)(=O)O1 [Acesulfame K, acesulfame K]

Molecule: O=S(=O)(O)NC1CCCCC1 [Cyclamate, cyclamate]
EC50 (read-out: EC50): 1370 ± 34 µM

Molecule: C[C@H](CC[C@@H](O[C@@H]1O[C@H](CO[C@@H]2O[C@H](CO)[C@@H](O)[C@H](O)[C@H]2O)[C@@H](O)[C@H](O)[C@H]1O[C@@H]1O[C@H](CO)[C@@H](O)[C@H](O)[C@H]1O)C(C)(C)O)[C@H]1CC[C@@]2(C)[C@@H]3CC=C4[C@@H](CC[C@H](O[C@@H]5O[C@H](CO[C@@H]6O[C@H](CO)[C@@H](O)[C@H](O)[C@H]6O)[C@@H](O)[C@H](O)[C@H]5O)C4(C)C)[C@]3(C)[C@H](O)C[C@]12C [Mogroside V, mogroside V]
R1 = Variant EC50/WT EC50: 0.7
Max ΔF/F0: 1.18 ± 0.04
EC50 (read-out: EC50): 22 ± 1.8 µM

R1 = Variant EC50/WT EC50: 0.9
Max ΔF/F0: 1.00 ± 0.01
EC50 (read-out: EC50): 43.1 ± 14.7 µM
Molecule: COc1ccc(CCC(=O)c2c(O)cc(O[C@@H]3O[C@H](CO)[C@@H](O)[C@H](O)[C@H]3O[C@@H]3O[C@@H](C)[C@H](O)[C@@H](O)[C@H]3O)cc2O)cc1O [NHDC, neohesperidin dihydrochalcone]

R1 = Variant EC50/WT EC50: 0.9
Max ΔF/F0: 0.76 ± 0.01
EC50 (read-out: EC50): 1.1 ± 0.06 µM
Molecule: COC(=O)[C@H](Cc1ccccc1)NC(=O)[C@H](CC(=O)O)NCCC(C)(C)C [Neotame]

R1 = Variant EC50/WT EC50: 0.7
Max ΔF/F0: 1.39 ± 0.15
EC50 (read-out: EC50): 10 ± 3.1 µM
Molecule: C=C(C)[C@@H]1CC=C(/C=N/O)CC1 [Perillartine, perillartine]

R1 = Variant EC50/WT EC50: 0.8
Max ΔF/F0: 1.35 ± 0.09
EC50 (read-out: EC50): 33.2 ± 5.4 µM
Molecule: C=C1C[C@@]23CC[C@H]4[C@@](C)(CCC[C@@]4(C)C(=O)O[C@@H]4O[C@H](CO)[C@@H](O)[C@H](O[C@@H]5O[C@H](CO)[C@@H](O)[C@H](O)[C@H]5O)[C@H]4O[C@@H]4O[C@H](CO)[C@@H](O)[C@H](O)[C@H]4O)[C@@H]2CC[C@]1(O[C@@H]1O[C@H](CO)[C@@H](O)[C@H](O[C@@H]2O[C@H](CO)[C@@H](O)[C@H](O)[C@H]2O)[C@H]1O[C@@H]1O[C@H](CO)[C@@H](O)[C@H](O)[C@H]1O)C3 [Rebaudioside M, rebaudioside M]

R1 = Variant EC50/WT EC50: 1.2
Max ΔF/F0: 0.84 ± 0.02
EC50 (read-out: EC50): 134 ± 8 µM
Molecule: OC[C@H]1O[C@H](O[C@]2(CCl)O[C@H](CCl)[C@@H](O)[C@@H]2O)[C@H](O)[C@@H](O)[C@H]1Cl [Sucralose]

R1 = Variant EC50/WT EC50: 0.7
EC50 (brazzein): 78.9 ± 14.2 µg/mL
Max ΔF/F0: 0.98 ± 0.05
Molecule: brazzein (QDKCKKVYENYPVSKCQLANQCNYDCKLDKHARSGECFYDEKRNLQCICDYCEY; ends and bridges not checked; cysteine pairing not given here; UniProt P56552 1-54, looked up) [sweet-tasting protein obtained by recombinant production using the yeast Pichia pastoris]

R1 = Variant EC50/WT EC50: 0.7
Max ΔF/F0: 0.71 ± 0.04
Molecule: thaumatin

EC50 (read-out: EC50): 7.4 ± 1.1 µM
B1: thaumatin (protein)
chain: ATFEIVNRCSYTVWAAASKGDAALDAGGRQLNSGESWTINVEPGTKGGKIWARTDCYFDDSGSGICKTGDCGGLLRCKRFGRPPTTLAEFSLNQYGKDYIDISNIKGFNVPMDFSPTTRGCRGVRCAADIVGQCPAKLKAPGGGCNDACTVFQTSEYCCTTGKCGPTEYSRFFKRLCPDAFSYVLDKPTTVTCPGSSNYRVTFCPTA
modifications: Eight disulfides
notes: sweet-tasting plant protein, E957
